# Reference: ChEMBL document CHEMBL1201862, “PubChem BioAssay data set” (2004)
# Calls of active or inactive are those of the source.
# How the values were obtained:
# [1] = target: T1, Oxysterols receptor LXR-beta (Homo sapiens, UniProt P55055); type: functional, cell-based;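 note: agonist activity at LXR measured by a cell-based luminescence readout across a dose range, run as a counterscreen for daf-12 agonists; potency for activation of Gal4-LXR reporter so compounds are agonists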
# T1 sequence (P55055 whole entry): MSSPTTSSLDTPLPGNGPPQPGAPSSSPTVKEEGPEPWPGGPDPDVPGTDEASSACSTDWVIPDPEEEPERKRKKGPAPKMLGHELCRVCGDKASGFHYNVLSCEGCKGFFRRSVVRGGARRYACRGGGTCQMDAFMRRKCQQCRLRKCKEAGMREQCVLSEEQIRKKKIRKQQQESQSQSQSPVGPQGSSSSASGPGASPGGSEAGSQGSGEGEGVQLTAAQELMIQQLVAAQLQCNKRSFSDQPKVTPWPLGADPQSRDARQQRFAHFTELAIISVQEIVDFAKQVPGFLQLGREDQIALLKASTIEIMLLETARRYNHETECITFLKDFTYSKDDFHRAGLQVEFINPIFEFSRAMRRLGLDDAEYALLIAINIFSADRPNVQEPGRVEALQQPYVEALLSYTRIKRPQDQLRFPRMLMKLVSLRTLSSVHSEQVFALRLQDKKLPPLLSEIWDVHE
# [2] = target: T2, Sentrin-specific protease 8 (Homo sapiens, UniProt Q96LD8); type: functional;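 note: luminescence read-out of SENP8 inhibition, dose-response confirmation following an ultra-high-throughput screen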
# T2 sequence (Q96LD8 whole entry): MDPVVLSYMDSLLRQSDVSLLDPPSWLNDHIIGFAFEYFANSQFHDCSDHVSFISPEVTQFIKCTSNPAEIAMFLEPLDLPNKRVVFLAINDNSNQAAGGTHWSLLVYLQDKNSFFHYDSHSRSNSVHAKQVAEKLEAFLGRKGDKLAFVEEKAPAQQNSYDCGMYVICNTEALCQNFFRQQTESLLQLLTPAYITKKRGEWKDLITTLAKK
# [3] = target: T3, Sentrin-specific protease 7 (Homo sapiens, UniProt Q9BQF6); type: functional;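 note: Luminescence-based dose-response confirmation of ultra-high-throughput screening hits, measuring inhibition of SENP7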
# T3 sequence (Q9BQF6 whole entry): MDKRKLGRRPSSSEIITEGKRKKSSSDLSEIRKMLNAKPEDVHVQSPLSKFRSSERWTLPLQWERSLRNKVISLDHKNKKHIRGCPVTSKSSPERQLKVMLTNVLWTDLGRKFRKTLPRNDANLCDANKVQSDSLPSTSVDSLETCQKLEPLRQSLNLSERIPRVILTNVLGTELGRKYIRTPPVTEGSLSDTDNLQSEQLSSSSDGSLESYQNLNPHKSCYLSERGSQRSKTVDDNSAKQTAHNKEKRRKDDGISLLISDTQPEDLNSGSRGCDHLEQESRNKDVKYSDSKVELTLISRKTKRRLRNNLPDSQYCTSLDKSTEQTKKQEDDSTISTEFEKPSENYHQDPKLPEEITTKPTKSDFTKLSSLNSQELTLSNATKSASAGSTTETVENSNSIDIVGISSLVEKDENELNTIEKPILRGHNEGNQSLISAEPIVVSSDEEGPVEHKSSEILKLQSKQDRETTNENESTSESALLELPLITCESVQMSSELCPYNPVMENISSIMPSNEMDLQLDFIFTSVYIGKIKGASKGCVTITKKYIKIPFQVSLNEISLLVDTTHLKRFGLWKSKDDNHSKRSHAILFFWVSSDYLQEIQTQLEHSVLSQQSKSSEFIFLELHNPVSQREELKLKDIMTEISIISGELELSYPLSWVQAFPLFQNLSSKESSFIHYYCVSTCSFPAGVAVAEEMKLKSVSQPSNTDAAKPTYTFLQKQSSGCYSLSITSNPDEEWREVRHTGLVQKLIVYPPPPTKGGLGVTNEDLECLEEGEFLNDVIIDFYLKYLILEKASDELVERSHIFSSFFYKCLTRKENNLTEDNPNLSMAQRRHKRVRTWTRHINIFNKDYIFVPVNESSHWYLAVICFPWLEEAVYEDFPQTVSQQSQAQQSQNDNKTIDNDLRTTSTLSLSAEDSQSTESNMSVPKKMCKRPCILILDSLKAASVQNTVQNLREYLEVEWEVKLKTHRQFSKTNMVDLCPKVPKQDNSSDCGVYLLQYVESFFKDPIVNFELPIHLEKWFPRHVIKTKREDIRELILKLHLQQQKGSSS
# Caspase-3 = target: T4, Caspase-3 (Homo sapiens, UniProt P42574); type: functional;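 note: Dose-response selectivity test against caspase-3 for candidate inhibitors of sentrin-specific proteases (SENPs)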
# T4 sequence (P42574 whole entry): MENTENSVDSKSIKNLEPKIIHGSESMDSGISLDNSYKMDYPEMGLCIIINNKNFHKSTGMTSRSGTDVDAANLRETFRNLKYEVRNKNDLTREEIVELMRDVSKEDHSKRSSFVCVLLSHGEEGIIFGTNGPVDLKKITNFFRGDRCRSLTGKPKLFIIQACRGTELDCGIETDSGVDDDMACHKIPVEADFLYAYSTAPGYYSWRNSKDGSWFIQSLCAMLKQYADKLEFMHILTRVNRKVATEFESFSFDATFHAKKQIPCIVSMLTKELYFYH
# [4] = target: T5, Sentrin-specific protease 6 (Homo sapiens, UniProt Q9GZR1); type: functional;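 note: Luminescence-based dose-response confirmatory assay of SENP6 inhibition, following up an ultra-high-throughput screen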
# T5 sequence (Q9GZR1 whole entry): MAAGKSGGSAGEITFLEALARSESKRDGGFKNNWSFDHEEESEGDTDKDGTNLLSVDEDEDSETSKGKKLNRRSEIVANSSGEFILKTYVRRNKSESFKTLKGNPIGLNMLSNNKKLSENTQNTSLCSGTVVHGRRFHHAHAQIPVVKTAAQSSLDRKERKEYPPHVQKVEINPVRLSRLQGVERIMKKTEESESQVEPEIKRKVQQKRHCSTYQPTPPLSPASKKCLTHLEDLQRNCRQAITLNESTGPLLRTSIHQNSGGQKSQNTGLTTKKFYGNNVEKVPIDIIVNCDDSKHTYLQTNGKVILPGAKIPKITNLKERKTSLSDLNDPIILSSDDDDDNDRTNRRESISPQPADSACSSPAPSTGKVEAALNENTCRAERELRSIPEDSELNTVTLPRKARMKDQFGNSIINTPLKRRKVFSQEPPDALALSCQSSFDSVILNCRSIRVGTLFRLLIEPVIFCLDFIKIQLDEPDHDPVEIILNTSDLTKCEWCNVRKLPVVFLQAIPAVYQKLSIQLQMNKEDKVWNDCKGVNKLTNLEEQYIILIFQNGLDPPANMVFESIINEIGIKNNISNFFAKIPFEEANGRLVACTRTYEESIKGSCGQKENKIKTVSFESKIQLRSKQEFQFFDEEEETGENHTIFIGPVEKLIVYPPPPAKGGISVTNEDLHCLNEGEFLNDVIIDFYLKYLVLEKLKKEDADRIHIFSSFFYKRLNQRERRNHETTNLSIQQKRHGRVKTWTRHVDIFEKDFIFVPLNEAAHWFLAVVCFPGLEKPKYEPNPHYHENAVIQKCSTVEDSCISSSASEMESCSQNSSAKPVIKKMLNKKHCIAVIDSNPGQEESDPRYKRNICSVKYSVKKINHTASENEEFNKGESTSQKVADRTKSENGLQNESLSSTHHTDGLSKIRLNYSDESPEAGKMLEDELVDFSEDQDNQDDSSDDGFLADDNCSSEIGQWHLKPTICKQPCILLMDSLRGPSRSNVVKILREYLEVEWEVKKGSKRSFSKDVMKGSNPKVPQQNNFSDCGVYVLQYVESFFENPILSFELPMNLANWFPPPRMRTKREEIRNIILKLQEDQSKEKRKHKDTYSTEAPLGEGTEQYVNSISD
# [5] = target: NAD-dependent protein deacylase sirtuin-5, mitochondrial (Homo sapiens, UniProt Q9NXA8); test: sirtuin-5 deacylation blockers, concentration series – biochemical, fluorescence imaging, cherry-pick, set 5, dose response (AID 720591);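 note: desuccinylation of succinyl peptide AMC substrate read as fluorescence after trypsin release; potency of inhibitors that lower fluorescence and may act on trypsin instead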
# NAD-dependent protein deacylase sirtuin-5, mitochondrial, sequence (Q9NXA8 whole entry): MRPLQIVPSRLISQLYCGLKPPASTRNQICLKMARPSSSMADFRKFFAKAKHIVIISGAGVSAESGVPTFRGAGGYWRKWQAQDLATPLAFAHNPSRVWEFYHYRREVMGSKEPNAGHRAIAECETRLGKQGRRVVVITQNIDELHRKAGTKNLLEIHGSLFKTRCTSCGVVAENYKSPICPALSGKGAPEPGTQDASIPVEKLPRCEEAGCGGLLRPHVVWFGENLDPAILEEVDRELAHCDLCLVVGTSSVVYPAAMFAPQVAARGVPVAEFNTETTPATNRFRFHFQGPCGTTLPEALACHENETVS
# [6] = blockade of melanocortin 4 receptor signaling – cell-based, plate reader, cherry pick, counter-screen for LGR2 antagonist project, dose response (AID 743444); type: functional;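 note: transfected HEK 293 cells stimulated with alpha-MSH peptide; potency of inhibitors of the alpha-MSH evoked signal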
# [7] = viability loss in HEK293 cells – cell-based, plate reader, cherry-picked samples, cytotoxicity control, dose response (AID 743446); type: functional
# [8] = blockers of bursicon-stimulated LGR2 cAMP reporter – cell-based, HEK293, CRE-luciferase reporter, cherry pick, set 2, dose response (AID 743343); type: functional;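 note: transfected cells were stimulated with diluted bursicon conditioned medium after compound addition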
# HEK293 = test: cells; type: functional, cell-based; conditions: Homo sapiens
# [9] = target: T1, Oxysterols receptor LXR-beta; test: LXR agonists, Gal4 luciferase reporter, dose response, counter-screen for ssDAF-12 agonist project, cell-based, luminescence, HEK293, S. stercoralis campaign (AID 720737); type: functional; conditions: read-out: IC50 (the source's name)
# [10] = target: T6, Nuclear receptor subfamily 0 group B member 1 (Homo sapiens, UniProt P51843); test: Luminescence-based cell-based high throughput dose response assay for inhibitors of the orphan nuclear receptor subfamily 0, group B, member 1 (DAX1; NR0B1). [Related pubchem assays (depositor defined):AID504766, AID504790]; type: functional
# T6 sequence (P51843 whole entry): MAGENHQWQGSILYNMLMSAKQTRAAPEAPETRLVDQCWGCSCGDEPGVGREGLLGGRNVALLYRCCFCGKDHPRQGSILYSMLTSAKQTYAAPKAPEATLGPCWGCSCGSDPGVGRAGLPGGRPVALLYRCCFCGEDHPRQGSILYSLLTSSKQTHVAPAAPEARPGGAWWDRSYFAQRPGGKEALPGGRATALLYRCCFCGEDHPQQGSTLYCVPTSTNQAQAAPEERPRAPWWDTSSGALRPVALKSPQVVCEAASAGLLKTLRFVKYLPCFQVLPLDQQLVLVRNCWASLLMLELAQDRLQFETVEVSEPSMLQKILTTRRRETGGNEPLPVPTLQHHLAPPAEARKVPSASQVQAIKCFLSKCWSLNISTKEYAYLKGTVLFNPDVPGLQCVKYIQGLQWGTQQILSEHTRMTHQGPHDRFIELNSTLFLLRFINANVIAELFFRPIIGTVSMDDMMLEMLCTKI
# [11] = Luminescence-based cell-based high throughput dose response assay to identify activators of the DAF-12 from the parasite S. stercoralis (ssDAF-12).; type: functional
# Protein Tat = target: T7, Protein Tat (Human immunodeficiency virus type 1 group M subtype B (isolate HXB2)(HIV-1), UniProt P04608); type: functional;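 note: tat binding to TAR RNA read out by fluorescence polarization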
# T7 sequence (P04608 whole entry): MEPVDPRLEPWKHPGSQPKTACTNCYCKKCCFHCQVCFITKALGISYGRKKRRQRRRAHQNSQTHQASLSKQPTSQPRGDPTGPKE
# [12] = target: T8, Mannose-6-phosphate isomerase (Homo sapiens, UniProt P34949); test: MPI inhibition at elevated mannose 6-phosphate – biochemical, fluorescence intensity, high mannose 6-phosphate, primary screen (AID 1220)
# T8 sequence (P34949 whole entry): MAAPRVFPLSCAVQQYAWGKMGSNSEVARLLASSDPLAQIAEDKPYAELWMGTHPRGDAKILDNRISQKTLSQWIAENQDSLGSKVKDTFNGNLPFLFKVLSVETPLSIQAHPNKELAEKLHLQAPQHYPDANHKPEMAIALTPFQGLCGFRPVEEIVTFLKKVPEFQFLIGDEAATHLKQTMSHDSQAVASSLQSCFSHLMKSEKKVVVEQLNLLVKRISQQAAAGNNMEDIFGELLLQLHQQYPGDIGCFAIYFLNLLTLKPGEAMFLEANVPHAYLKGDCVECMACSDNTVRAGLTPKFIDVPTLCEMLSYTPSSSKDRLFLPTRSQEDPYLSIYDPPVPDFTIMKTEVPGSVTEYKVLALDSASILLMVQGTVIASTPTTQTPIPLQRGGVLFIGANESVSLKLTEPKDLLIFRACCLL
# [13] = toxicity to human hepatoma HepG2 cells – cell-based, cherry-picked samples, cytotoxicity control, dose response (AID 1159577); type: functional
# [14] = P. falciparum Dd2 growth inhibitors, dose response, SYBR Green, cherry-picked samples (AID 1159567); type: functional, cell-based
# [15] = target: T9, Rac GTPase-activating protein 1 (Homo sapiens, UniProt Q9H0H5); test: blockers of MgcRacGAP-driven Rac1 GTP hydrolysis – biochemical, ADP Hunter fluorescence, primary and confirmatory, confirmation (AID 624330); type: functional
# T9 sequence (Q9H0H5 whole entry): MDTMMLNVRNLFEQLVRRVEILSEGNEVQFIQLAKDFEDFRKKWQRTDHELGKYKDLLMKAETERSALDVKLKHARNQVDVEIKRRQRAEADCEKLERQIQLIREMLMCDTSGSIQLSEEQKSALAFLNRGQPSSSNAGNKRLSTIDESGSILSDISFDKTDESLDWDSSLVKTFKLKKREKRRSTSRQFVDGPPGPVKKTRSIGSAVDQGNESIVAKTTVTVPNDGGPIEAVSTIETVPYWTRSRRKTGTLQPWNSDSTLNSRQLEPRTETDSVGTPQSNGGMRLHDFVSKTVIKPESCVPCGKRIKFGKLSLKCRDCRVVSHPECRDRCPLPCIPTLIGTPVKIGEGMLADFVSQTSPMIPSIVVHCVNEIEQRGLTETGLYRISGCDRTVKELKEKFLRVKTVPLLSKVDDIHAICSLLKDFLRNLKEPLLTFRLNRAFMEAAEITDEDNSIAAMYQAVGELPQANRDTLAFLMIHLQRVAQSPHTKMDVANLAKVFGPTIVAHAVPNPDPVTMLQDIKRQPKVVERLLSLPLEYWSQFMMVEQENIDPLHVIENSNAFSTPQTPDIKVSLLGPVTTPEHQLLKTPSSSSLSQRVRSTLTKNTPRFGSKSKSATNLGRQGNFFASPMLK
smiles,measurement,setting,value
Cc1ccc(SCCSc2ncccn2)cc1,EC50,[1],> 67.5 µM (inactive)
CCOC(=O)c1c(C)[nH]c(N=Nc2cccc(OC)c2)c1C,IC50,[2],17.3 µM (active)
same,EC50,[1],> 67.5 µM (inactive)
same,IC50,[3],3.75 µM (active)
same,IC50,Caspase-3,29.1 µM (active)
same,IC50,[4],11.7 µM (active)
O=C(COC(=O)c1nnc(O)c2ccccc12)Nc1ccccc1,AC50,[5],> 30 µM (inactive)
Clc1cccc(N2Cc3cc(-c4ccccc4)ccc3-n3nncc3C2)c1,AC50,[6],34.1 µM (active)
same,AC50,[7],20.7 µM (active)
same,AC50,[8],29.4 µM (active)
COc1ccc(Cl)cc1C(=O)Nc1ccc2c(c1)OCCO2,IC50,HEK293,> 67.5 µM (inactive)
same,EC50,[9],> 67.5 µM (inactive)
same,IC50,[10],> 67.5 µM (inactive)
same,IC50,[11],> 67.5 µM (inactive)
O=C(c1ccco1)N1CCN(C(c2ccccn2)c2nnnn2C2CCCC2)CC1 (configuration not stated),IC50,Protein Tat,> 100 µM (active)
CCN(CC)c1ccc(N/C=C2\C(=O)NC(=O)N(CCc3ccc(OC)c(OC)c3)C2=O)cc1,IC50,[12],> 50 µM (not active)
Cc1cccc2sc(NC(=O)C3CC3)nc12,AC50,[5],> 30 µM (inactive)
COc1cccc(S(=O)(=O)N2CCCCN3[C@@H](CO)[C@@H](c4ccc(C5=CCCCC5)cc4)[C@@H]3C2)c1,AC50,[13],10.8 µM (active)
same,AC50,[14],1.62 µM (active)
Cc1cc(C(=O)NNC(=O)/C=C/c2ccco2)c(C)o1,IC50,Protein Tat,> 100 µM (active)
same,IC50,[15],125 µM (active)
Cc1ccc(C)c(N2CCN(C(=O)c3cccn4c(=O)c5sccc5nc34)CC2)c1,AC50,[5],26.9 µM (active)
